Measured values from US4663309A, “Novel peptide hormones with calcitonin-like activity” (University Patents, Inc., priority 1985, dated 1987).
Bridge positions count the residues as written; N and C are the ends. Peptide text beside a SMILES is read from it.

Columns and labels:
[1] = Circular dichroism spectra, alpha-helical structure in solution; assay type: physicochemical
Description: The circular dichroism (CD) spectra of MCT-I and salmon calcitonin (designated "SCT-I", available from Armour Pharmaceuticals, Kankakee, IL and used without further purification) from 250 nm to 205 nm show minima at 222 nm and 208 nm characteristic of α-helical structure. For MCT-I, the mean residue molar ellipticity at 222 nm, [θ]222, was -7,800 deg.cm^2 /dmol (10^-4 M peptide, 0.02M sodium phosphate buffer, 0.16M KCl, pH 7.4), from which the α-helicity was estimated to be 30% (assuming no contribution to CD by β-sheet structure) according to the method of Morrisett, J. D., J. S. K. Davis, H. J. Pownall, and A. M. Gotto, Biochemistry 12:1290 (1973). […] Similarly, the value of [θ]222 for solutions of SCT-I over the same concentration range and under the same conditions also remains constant at -4,600 deg.cm^2 /dmol, leading to an estimate of 20% α-helix for this peptide. In 50% trifluoroethanol, a structure promoting solvent, both MCT-I and SCT-I were estimated to be 50% α-helical at a concentration of 5×10^-5 M, as was found by Brewer, H. D. and H. Edelhoch, J. Biol. Chem. 245:2402 (1970) for porcine calcitonin (PCT) in 50% 2-chloroethanol.
The circular dichroic spectra of MCT-II solutions buffered with 0.02M sodium phosphate at pH 7.4 and containing 0.16M KCl were measured from 250 nm to 200 nm using a Carey 60™ spectropolarimeter (Varian Instruments, Palo Alto. CA). The spectrometer cells used were washed with concentrated nitric acid, rinsed thoroughly with deionized water, then treated with a 1% aqueous polyethylene glycol (Mr 15K-20K) solution for 1 hr and finally rinsed with water before using. The molar ellipticities obtained from the circular dichroic spectra of MCT-II from 240 nm to 204 nm were fitted by a linear combination of three different basis functions derived from the spectra described by Greenfield, N. and G. D. Fasman, Biochem. 8:4108(1969) for α-helix, β-sheet, and random coil structure. […] Since there was no significant contribution to the spectrum from β-sheet structure, we used the mean residue molar ellipticity at 222 nm, [ θ]222, to estimate changes in α-helical structure (Morrisett et al., supra). The results are given in FIG. 3; each data point represents the mean from two experiments. […] [θ]222 for the monomer was -5,200 deg.cm^2 /dmol (20% α-helix) and -10,475 deg.cm^2 /dmol (35% α-helix) for the trimer. […] This dissociation constant corresponds to a 4.5 kcal/mol of stabilization energy per monomer for trimerization. Under similar conditions and over the same concentration range [θ]222 for MCT-I and SCT-I remained constant at -7,800 deg.cm^2 /dmol and -4,600 deg.cm^2 /dmol, respectively.

[2] = Binding to single bilayer egg lecithin vesicles; assay type: physicochemical; settings: for Adsorption to the surface of single bilayer egg lecithin vesicles: 1 to 100 μM peptide, SCT-I at pH 7.4 or pH 3.0; for N, upper limit of bound peptide per vesicle / Kd: 7×10^-4 M lecithin; for N, upper limit of bound peptide per vesicle: pH 7.4; for Kd: pH 7.4, 45 min at 21° C., read-out: K, dissociation constant for vesicle binding; for A∞·N product: A∞ from the monolayer studies in Example 7
Protocol: Egg lecithin single bilayer vesicles (SBVs) were prepared by rapid injection of an ethanolic egg yolk lecithin (Avanti Polar-Lipids Inc., Birmingham, AL) solution into aqueous 0.16M KCl by the method of Batzri, S. and E. D. Korn, Biochim. Biophys. Acta 298:1015(1973) and purified by filtration through a 2.5 cm×87 cm column of Fractogel TSK HW-75(F)™ (Pierce Chemical Co., Rockford, IL). After purification, vesicles were characterized by gel filtration through a 1.5 cm×40 cm column of Sepharose CL-4B™ (Pharmacia Fine Chemicals) by the method of Batzri and Korn, supra. The concentration of vesicles in stock solutions were determined by the phosphate assay of Ames, B. N. and D. T. Dubin, J. Biol. Chem. 235:769(1960). In a typical binding experiment, varying concentrations of peptide were incubated for 45 min at 21° C. with vesicles (7×10^-4 M lecithin) in 0.02M sodium phosphate buffer, pH 7.4 containing 0.16M KCl in a total volume of 300 μl for 45 min. Free peptide was separated from vesicle-bound peptide by rapid filtration through a 1.4 cm×6.3 cm column of Sepharose CL-6B™ (Pharmacia Fine Chemicals) using the same buffer as above the eluent. The concentration of peptide in each fraction was determined using fluorescamine after first disrupting the vesicles with isopropanol (20% by volume).
The data for MCT-I and MCT-II were analyzed according to the equation Pf =(N·V·Pf /Pb)-K (Adamson, A. W., Physical Chemistry of Surfaces, 3rd Ed. (Wiley Interscience, New York, 1976), p. 388), where Pf and Pb are the concentration of free and bound peptide respectively, V is the initial molarity of vesicles (3200 phospholipids per vesicle), N is the upper limit of Pf /V, and K is the dissociation constant. Plots of V·Pf /Pb versus Pf were linear and gave K=12.9±4.8 μM with N=50±5 for MCT-I and K=6.7±1.7 μM, N= 68±2 for MCT-II. The product, A.infin. ·N, where A.infin. was obtained from the monolayer studies in Example 7, are nearly the same (A.infin. ·N(MCT-I) =2.2±0.2×10^4 Å^2, A.infin. ·N(MCT-II) =2.5±0.1×10^4 Å^2), accounting for the difference in observed values of N. A.infin. ·N is also in reasonable agreement with estimates of the available surface area between the phospholipid head groups of 230 Å diameter vesicles (1.8±0.6×10^4 Å^2; Kupferberg, J. P., S. Yokoyama, and F. J. Kezdy, J. Biol. Chem. 256:6274(1981)).

Row | Structure (SMILES) | Stabilization energy per monomer for trimerization [1] | α-helix of the monomer ([1]; monomer) | Dissociation constant (Kd) for the oligomer ([1]; monomer/trimer equilibrium) | [θ]222 for the monomer ([1]; monomer, 0.02M sodium phosphate pH 7.4, 0.16M KCl) | α-helix of the trimer ([1]; trimer) | [θ]222 for the trimer ([1]; trimer, 0.02M sodium phosphate pH 7.4, 0.16M KCl) | Adsorption to the surface of single bilayer egg lecithin vesicles [2] | N, upper limit of bound peptide per vesicle [2] | Kd [2] | A∞·N product [2] | α-helicity estimated from [θ]222 ([1]; 0.02M sodium phosphate, 0.16M KCl, pH 7.4) | Mean residue molar ellipticity at 222 nm, [θ]222 ([1]; 0.02M sodium phosphate, 0.16M KCl, pH 7.4, constant from 10^-7 M to 10^-4 M) | α-helicity in 50% trifluoroethanol ([1]; 5×10^-5 M peptide)
1 | CC(C)C[C@H](NC(=O)[C@H](CCCCN)NC(=O)[C@H](CCC(N)=O)NC(=O)[C@H](CC(C)C)NC(=O)[C@H](CCC(N)=O)NC(=O)[C@H](CCC(N)=O)NC(=O)[C@H](CC(C)C)NC(=O)[C@H](CC(C)C)NC(=O)[C@@H]1CSSC[C@H](N)C(=O)N[C@@H](CO)C(=O)N[C@@H](CC(N)=O)C(=O)N[C@@H](CC(C)C)C(=O)N[C@@H](CO)C(=O)N[C@@H]([C@@H](C)O)C(=O)N1)C(=O)N[C@@H](CC(C)C)C(=O)N[C@@H](CCC(N)=O)C(=O)N[C@@H](CCCCN)C(=O)N[C@@H](CC(C)C)C(=O)N[C@@H](CCCCN)C(=O)N[C@@H](CCC(N)=O)C(=O)N[C@@H](Cc1ccc(O)cc1)C(=O)N1CCC[C@H]1C(=O)N[C@@H](CCCNC(=N)N)C(=O)N[C@H](C(=O)N[C@@H](CC(N)=O)C(=O)N[C@H](C(=O)NCC(=O)N[C@@H](CO)C(=O)NCC(=O)N[C@H](C(=O)N1CCC[C@H]1C(N)=O)[C@@H](C)O)[C@@H](C)O)[C@@H](C)O [MCT-II] (H-CSNLSTCLLQQLQKLLQKLKQYPRTNTGSGTP-NH2; disulfide 1-7; N-terminus assumed) | 4.5 kcal/mol | 20% | 5.06×10^-11 M^2 | -5,200 deg.cm^2 /dmol | 35% | -10,475 deg.cm^2 /dmol | adsorb to the surface | 68±2 | 6.7 ± 1.7 µM | 2.5±0.1×10^4 Å^2 | – | – | –
2 | CC(C)C[C@@H]1NC(=O)[C@H](CC(N)=O)NC(=O)CNC(=O)[C@@H](N)CSSC[C@@H](C(=O)N[C@@H](CC(C)C)C(=O)N[C@@H](CC(C)C)C(=O)N[C@@H](CCC(N)=O)C(=O)N[C@@H](CCC(N)=O)C(=O)N[C@@H](Cc2c[nH]c3ccccc23)C(=O)N[C@@H](CCC(N)=O)C(=O)N[C@@H](CCCCN)C(=O)N[C@@H](CC(C)C)C(=O)N[C@@H](CC(C)C)C(=O)N[C@@H](CCC(N)=O)C(=O)N[C@@H](CCCCN)C(=O)N[C@@H](CC(C)C)C(=O)N[C@@H](CCCCN)C(=O)N[C@@H](CCC(N)=O)C(=O)N[C@@H](CC(C)C)C(=O)N2CCC[C@H]2C(=O)N[C@@H](CCCNC(=N)N)C(=O)N[C@H](C(=O)N[C@@H](CC(N)=O)C(=O)N[C@H](C(=O)NCC(=O)N[C@@H](CO)C(=O)NCC(=O)N[C@H](C(=O)N2CCC[C@H]2C(N)=O)[C@@H](C)O)[C@@H](C)O)[C@@H](C)O)NC(=O)[C@H]([C@@H](C)O)NC(=O)[C@H](CO)NC1=O [MCT-I] (H-CGNLSTCLLQQWQKLLQKLKQLPRTNTGSGTP-NH2; disulfide 1-7) | – | – | – | – | – | – | adsorb to the surface | 50±5 | 12.9 ± 4.8 µM | 2.2±0.2×10^4 Å^2 | 30% | -7,800 deg.cm^2 /dmol | 50%
